Experimental data published in PubChem BioAssay (NCI).
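Briefly, cells in 96-well plates were exposed to five compound concentrations for 48 h, and endpoints were estimated by linear interpolation. Here, GI50 denotes the concentration required for 50% inhibition of growth. TGI: total growth inhibition.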

How the values were obtained:
Assay in all cases: growth of human tumour cells (NCI), 48 h
EKVX NSCLC = tested on: EKVX NSCLC
A549 NSCLC = tested on: A549 NSCLC
UACC-257 melanoma = tested on: UACC-257 melanoma
HCT-116 colon = tested on: HCT-116 colon
NCI-H522 lung = tested on: NCI-H522 lung
A498 renal = tested on: A498 renal
U251 CNS = tested on: U251 CNS
ACHN renal = tested on: ACHN renal
786-0 renal = tested on: 786-0 renal
MOLT-4 leukemia = tested on: MOLT-4 leukemia
SW-620 colon = tested on: SW-620 colon
HS 578T breast = tested on: HS 578T breast
HCT-15 colon = tested on: HCT-15 colon
PC-3 prostate = tested on: PC-3 prostate
SF-295 CNS = tested on: SF-295 CNS
BT-549 breast = tested on: BT-549 breast
OVCAR-4 ovarian = tested on: OVCAR-4 ovarian
CAKI-1 renal = tested on: CAKI-1 renal
IGROV1 ovarian = tested on: IGROV1 ovarian
HOP-92 NSCLC = tested on: HOP-92 NSCLC
MDA-MB-468 breast = tested on: MDA-MB-468 breast
NCI/ADR-RES ovarian = tested on: NCI/ADR-RES ovarian
NCI-H460 lung = tested on: NCI-H460 lung
K-562 leukemia = tested on: K-562 leukemia
TK-10 renal = tested on: TK-10 renal
LOX IMVI melanoma = tested on: LOX IMVI melanoma
CCRF-CEM leukemia = tested on: CCRF-CEM leukemia
SNB-19 CNS = tested on: SNB-19 CNS
OVCAR-8 ovarian = tested on: OVCAR-8 ovarian
RPMI-8226 leukemia = tested on: RPMI-8226 leukemia
SN12C renal = tested on: SN12C renal
SF-539 CNS = tested on: SF-539 CNS
NCI-H226 lung = tested on: NCI-H226 lung
HCC-2998 colon = tested on: HCC-2998 colon
MCF7 breast = tested on: MCF7 breast
SK-MEL-28 melanoma = tested on: SK-MEL-28 melanoma
HOP-62 NSCLC = tested on: HOP-62 NSCLC
SR leukemia = tested on: SR leukemia
SK-MEL-5 melanoma = tested on: SK-MEL-5 melanoma
MALME-3M melanoma = tested on: MALME-3M melanoma
OVCAR-5 ovarian = tested on: OVCAR-5 ovarian
NCI-H23 lung = tested on: NCI-H23 lung
HL-60(TB) leukemia = tested on: HL-60(TB) leukemia
UACC-62 melanoma = tested on: UACC-62 melanoma
SF-268 CNS = tested on: SF-268 CNS
HT29 colon = tested on: HT29 colon
OVCAR-3 ovarian = tested on: OVCAR-3 ovarian
SK-OV-3 ovarian = tested on: SK-OV-3 ovarian
DU-145 prostate = tested on: DU-145 prostate
COLO 205 colon = tested on: COLO 205 colon
MDA-MB-435 = tested on: MDA-MB-435
M14 melanoma = tested on: M14 melanoma
KM12 colon = tested on: KM12 colon
RXF 393 renal = tested on: RXF 393 renal
T-47D breast = tested on: T-47D breast

With `O=C1Nc2ccc(F)cc2/C1=C/c1cccc(OCc2ccccn2)c1` the GI50 (EKVX NSCLC) was 13 µM, the TGI (EKVX NSCLC) was 26.9 µM and the GI50 (A549 NSCLC) was 18.9 µM. For the same compound, the TGI (A549 NSCLC) was 59.9 µM, the GI50 (UACC-257 melanoma) was 14.4 µM and the TGI (UACC-257 melanoma) was 30.1 µM. For the same compound, the GI50 (HCT-116 colon) was 13.7 µM, the TGI (HCT-116 colon) was 28.5 µM and the GI50 (NCI-H522 lung) was 15.9 µM. The TGI (NCI-H522 lung) was 33 µM, the GI50 (A498 renal) was 54.3 µM and the TGI (A498 renal) was greater than 100 µM. For the same compound, the GI50 (U251 CNS) was 15.2 µM, the TGI (U251 CNS) was 33.3 µM and the GI50 (ACHN renal) was 16.4 µM. The TGI (ACHN renal) was 33.5 µM, the GI50 (786-0 renal) was 15 µM and the TGI (786-0 renal) was 29.7 µM. It also gave a GI50 (MOLT-4 leukemia) of 17.5 µM, a TGI (MOLT-4 leukemia) of 40 µM and a GI50 (SW-620 colon) of 17.2 µM. The TGI (SW-620 colon) was 36 µM, the GI50 (HS 578T breast) was 17.6 µM and the TGI (HS 578T breast) was 63.3 µM. The GI50 (HCT-15 colon) was 16.5 µM, the TGI (HCT-15 colon) was 34.4 µM and the GI50 (PC-3 prostate) was 18.7 µM. It also gave a TGI (PC-3 prostate) of 48.7 µM, a GI50 (SF-295 CNS) of 16 µM and a TGI (SF-295 CNS) of 30.3 µM. For the same compound, the GI50 (BT-549 breast) was 15 µM, the TGI (BT-549 breast) was 30.1 µM and the GI50 (OVCAR-4 ovarian) was 22 µM. For the same compound, the TGI (OVCAR-4 ovarian) was 63.3 µM, the GI50 (CAKI-1 renal) was 19.6 µM and the TGI (CAKI-1 renal) was 55.5 µM. It also gave a GI50 (IGROV1 ovarian) of 17 µM, a TGI (IGROV1 ovarian) of 36.2 µM and a GI50 (HOP-92 NSCLC) of 11.3 µM. It also gave a TGI (HOP-92 NSCLC) of 36.3 µM, a GI50 (MDA-MB-468 breast) of 14.2 µM and a TGI (MDA-MB-468 breast) of 29.3 µM. The GI50 (NCI/ADR-RES ovarian) was 16.8 µM, the TGI (NCI/ADR-RES ovarian) was 39.3 µM and the GI50 (NCI-H460 lung) was 19.8 µM. It also gave a TGI (NCI-H460 lung) of 44.4 µM, a GI50 (K-562 leukemia) of 17.5 µM and a TGI (K-562 leukemia) of 57.3 µM. The GI50 (TK-10 renal) was 18.1 µM, the TGI (TK-10 renal) was 32.5 µM and the GI50 (LOX IMVI melanoma) was 14.9 µM. The TGI (LOX IMVI melanoma) was 29 µM, the GI50 (CCRF-CEM leukemia) was 25.9 µM and the TGI (CCRF-CEM leukemia) was 71.8 µM. It also gave a GI50 (SNB-19 CNS) of 17.2 µM, a TGI (SNB-19 CNS) of 33.2 µM and a GI50 (OVCAR-8 ovarian) of 16.1 µM. For the same compound, the TGI (OVCAR-8 ovarian) was 31.7 µM, the GI50 (RPMI-8226 leukemia) was 17.3 µM and the TGI (RPMI-8226 leukemia) was 48 µM. For the same compound, the GI50 (SN12C renal) was 16.8 µM, the TGI (SN12C renal) was 34.4 µM and the GI50 (SF-539 CNS) was 16.3 µM. For the same compound, the TGI (SF-539 CNS) was 30.4 µM, the GI50 (NCI-H226 lung) was 15 µM and the TGI (NCI-H226 lung) was 29.9 µM. The GI50 (HCC-2998 colon) was 16.3 µM, the TGI (HCC-2998 colon) was 30.3 µM and the GI50 (MCF7 breast) was 12.1 µM. For the same compound, the TGI (MCF7 breast) was 26.4 µM, the GI50 (SK-MEL-28 melanoma) was 18.4 µM and the TGI (SK-MEL-28 melanoma) was 37.1 µM. For the same compound, the GI50 (HOP-62 NSCLC) was 14.4 µM, the TGI (HOP-62 NSCLC) was 30.8 µM and the GI50 (SR leukemia) was 16.4 µM. The TGI (SR leukemia) was 42.6 µM, the GI50 (SK-MEL-5 melanoma) was 16.6 µM and the TGI (SK-MEL-5 melanoma) was 30.5 µM. It also gave a GI50 (MALME-3M melanoma) of 17.5 µM, a TGI (MALME-3M melanoma) of 40.1 µM and a GI50 (OVCAR-5 ovarian) of 16 µM. For the same compound, the TGI (OVCAR-5 ovarian) was 31 µM, the GI50 (NCI-H23 lung) was 15 µM and the TGI (NCI-H23 lung) was 28.8 µM. It also gave a GI50 (HL-60(TB) leukemia) of 16.4 µM, a TGI (HL-60(TB) leukemia) of 39.3 µM and a GI50 (UACC-62 melanoma) of 13.6 µM. The TGI (UACC-62 melanoma) was 27.7 µM, the GI50 (SF-268 CNS) was 17.1 µM and the TGI (SF-268 CNS) was 39.3 µM. The GI50 (HT29 colon) was 17.5 µM, the TGI (HT29 colon) was 34.7 µM and the GI50 (OVCAR-3 ovarian) was 15.2 µM. The TGI (OVCAR-3 ovarian) was 32.4 µM, the GI50 (SK-OV-3 ovarian) was 18.6 µM and the TGI (SK-OV-3 ovarian) was 50 µM. The GI50 (DU-145 prostate) was 18.2 µM, the TGI (DU-145 prostate) was 33.5 µM and the GI50 (COLO 205 colon) was 16.3 µM. The TGI (COLO 205 colon) was 31 µM, the GI50 (MDA-MB-435) was 18.5 µM and the TGI (MDA-MB-435) was 36.6 µM. It also gave a GI50 (M14 melanoma) of 15.7 µM, a TGI (M14 melanoma) of 31.5 µM and a GI50 (KM12 colon) of 19 µM. For the same compound, the TGI (KM12 colon) was 37.3 µM, the GI50 (RXF 393 renal) was 13.3 µM and the TGI (RXF 393 renal) was 26.4 µM. It also gave a GI50 (T-47D breast) of 15 µM and a TGI (T-47D breast) of 34 µM.
